The source of these data is patent US4616008A, “Antibacterial solid composition for oral administration” (Takeda Chemical Industries, Ltd., priority 1984, dated 1986).

Where a name gives a salt, the structure may show the parent alone.

A short description of the series: Test Example 3: Determination of oil/water partition coefficient (n-octanol / Sorensen buffer pH 7.0, HPLC). In kind it is physicochemical. The conditions noted are these: dihydrochloride. The protocol: A 10-ml portion, of a solution prepared by dissolving the dihydrochloride of Compound No. 1 in Sorensen buffer solution (pH 7.0) to a concentration of 100 μg/ml is placed in a 50-ml centrifuagl tube, followed by addition of 10 ml of n-octanol. After shaking at 25° C. for 10 minutes, the mixture is centrifuged and the concentration of the cephalosporin compound in the aqueous layer is determined by high performance liquid chromatography [column: μ-Bondapak C-18 produced by Waters Associates, Canada; eluent: 0.05 M ammonium sulfate solution+acetonitrile+acetic acid (400:200:1 v/v)]. A value of 0.45 μg/ml is obtained. From this value, the oil/water partition coefficient is calculated as follows: [formula]

`CC(OC(=O)OC1CCCCC1)OC(=O)C1=C(CSc2nnnn2CCN(C)C)CS[C@@H]2[C@H](NC(=O)Cc3csc(N)n3)C(=O)N12` (stereo partly drawn) [Compound No. 1, 1-(cyclohexyloxycarbonyloxy)ethyl 7β-[2-(2-aminothiazol-4-yl)acetamido]-3-[[[1-(2-dimethylaminoethyl-1H-tetrazol-5-yl]thio]methyl]ceph-3-em-4-carboxylatedihydrochloride]: the “concentration of the cephalosporin compound in the aqueous layer” value (initial 100 μg/ml in Sorensen buffer pH 7.0, equal volume n-octanol, 25° C., 10 minutes shaking) amounted to 450 ng/mL. The log distribution coefficient (logD) (n-octanol/Sorensen buffer pH 7.0, 25° C., calculated from aqueous concentration) was 2.34.

In general, logD refers to the decadic logarithm of the distribution of all forms, ionised or not, between an organic phase and buffer at a given pH.
